Legend:
PPAR-α [1] = biological target: T1, PPAR-α (Homo sapiens, UniProt Q07869); assay: TR-FRET LanthaScreen PPAR coactivator recruit assay, PPAR-α (PGC1a peptide); type: biochemical
T1 construct: purchased Invitrogen / Thermo Fisher Scientific (assay service)
T1 sequence (Q07869 239-466 limits assumed): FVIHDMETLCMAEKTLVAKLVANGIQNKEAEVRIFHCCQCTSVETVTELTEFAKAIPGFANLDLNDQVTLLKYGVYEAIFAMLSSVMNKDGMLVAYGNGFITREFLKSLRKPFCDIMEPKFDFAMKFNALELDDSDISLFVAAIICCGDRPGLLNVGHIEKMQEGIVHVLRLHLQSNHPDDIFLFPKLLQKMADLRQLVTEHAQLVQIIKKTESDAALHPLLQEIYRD
Text: Binding of agonist to the PPAR LBD causes a conformational change around helix 12 in the LBD, resulting in higher affinity for the coactivator peptide. When the terbium label on the anti-GST antibody complexed with PPAR is excited at 340 nm, energy is transferred to the fluorescein label on the coactivator peptide and detected as emission at 520 nm. […] Based on the biology of the PPAR-coactivator peptide interaction, this ligand EC50 is a composite value representing the amount of ligand required to bind to receptor, effect a conformational change, and recruit coactivator peptide. Potency of compounds show similar order to their activity (Table 3). […] Ligands such as TZDs show little or no binding to PPAR-δ. Compound 11 and 15 have ortho or meta substituted benzoic acid as an acidic head group. Their acidic head groups might seem to be too large to fit within the narrow PPAR-δ pocket. In contrast, the compound 1 and 2 contains an acetic acid head group that complements the narrow PPAR-δ ligand binding. […] The potency and selectivity of compound 11 could be explained by harmonization of steric effect of acidic head group, length and rigidity of hydrophobic tail, and properly tuned aromatic linker system.
EC50 of compounds were determined by recruitment of transcriptional coactivators using the TR-FRET based Lanthascreen coactivator assays (Invitrogen, Carlsbad, CA, USA). Which was serviced by Thermo Fisher Scientific (Medicon, WI, USA) according to the LanthaScreen TR-FRET coregulator protocol and assay conditions. Coregulator peptide PGC1a, TRAP220/DRIP2 and C33 was used for the coactivator recruit assay of PPAR-α, -γ, and -δ, respectively.

PPAR-α [2] = biological target: T2, PPAR-α (Homo sapiens, UniProt Q07869); assay: cell-based PPAR transactivation (luciferase) assay, PPAR-α; conditions: 24 h; compounds 10 µM; relative to maximum activation with GW7647 (10 µM); PPAR-Luc in CV-1 cells; read-out: % max PPAR-α
T2 construct: host or cells: CV-1
T2 sequence (Q07869 1-468): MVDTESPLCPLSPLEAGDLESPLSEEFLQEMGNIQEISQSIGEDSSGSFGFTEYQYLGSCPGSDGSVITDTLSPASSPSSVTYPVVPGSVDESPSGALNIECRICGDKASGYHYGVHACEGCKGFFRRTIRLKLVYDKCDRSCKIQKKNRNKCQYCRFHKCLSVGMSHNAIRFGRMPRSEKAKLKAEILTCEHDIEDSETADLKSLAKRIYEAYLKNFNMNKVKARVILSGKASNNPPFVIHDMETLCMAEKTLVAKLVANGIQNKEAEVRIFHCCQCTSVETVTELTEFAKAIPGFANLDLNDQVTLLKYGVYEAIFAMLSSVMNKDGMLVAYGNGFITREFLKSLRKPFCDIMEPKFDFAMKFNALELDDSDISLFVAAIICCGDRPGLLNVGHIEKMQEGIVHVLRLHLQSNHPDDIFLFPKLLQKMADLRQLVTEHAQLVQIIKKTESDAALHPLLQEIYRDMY
Description: The PPAR activities of the synthesized dichloroanilide-linked indole analogs were assessed using a standard cell-based transactivation assay in CV-1 cells. GW7647 [42], pioglitazone, and GW0742 [43] were used as positive controls for PPAR-α, -γ, and -δ, respectively. These three positive controls presented the maximum activation for each PPAR subtype. The activity of the compounds was presented as the activation percentage (%) relative to the maximum values of the positive controls at the indicated concentrations.
Transient transfection and luciferase assay was carried out. CV-1 cells were seeded in 48-well plates at a density of 1.5 × 10^5 cells/well in Dulbecco’s modified Eagle’s medium (DMEM) with containing 10% fetal bovine serum (FBS). The cells were transiently transfected with plasmid mixtures containing PPAR-α/γ expression vector and tk-PPRE-luciferase (Luc) vector for 6 h and then treated with the samples for 24 h. HEK293t cells were seeded in a 60-mm dish at a density of 1.5 × 10^6 cells/dish. After transfection with the plasmid mixtures containing PPAR-δ expression vector and Luc vector for 6 h, the cells were transferred to a 96-well plate and treated with the samples. To normalize the transfection efficiency, a β-galactosidase plasmid was cotransfected. The luciferase activity in the cell lysates was measured using a luciferase assay system (Promega Corp., Madison, WI, USA), and the β-galactosidase activity was determined by measuring the absorbance at 410 nm using an ELISA plate reader. The data were expressed as the relative luciferase activity divided by the β-galactosidase activity. All constructs were kindly gifted by Dr. Ronald M. Evans at The Salk Institute (La Jolla, CA, USA).

EC50 (PPAR-α [1]) [µM] | activation at 10 µM (PPAR-α [2]) [%] | SMILES
3.87 | 105.1 ± 0.41 | O=C(COc1ccc2c(ccn2Cc2ccccc2C(=O)O)c1)Nc1ccc(Cl)cc1Cl [Compound 12, 2-((5-(2-((2,4-Dichlorophenyl)amino)-2-oxoethoxy)-1H-indol-1-yl)methyl)benzoic acid]
16.9 | 51.84 ± 0.25 | O=C(COc1ccc2ccn(Cc3ccccc3C(=O)O)c2c1)Nc1ccc(Cl)cc1Cl [Compound 13, 2-((6-(2-((2,4-Dichlorophenyl)amino)-2-oxoethoxy)-1H-indol-1-yl)methyl)benzoic acid]
> 100 | 78.15 ± 0.04 | O=C(COc1ccc2ccn(Cc3cccc(C(=O)O)c3)c2c1)Nc1ccc(Cl)cc1Cl [Compound 15, 3-((6-(2-((2,4-Dichlorophenyl)amino)-2-oxoethoxy)-1H-indol-1-yl)methyl)benzoic acid]
> 100 | 23.79 ± 0.11 | O=C(COc1ccc2c(c1)c(Cc1ccccc1)cn2Cc1ccccc1C(=O)O)Nc1ccc(Cl)cc1Cl [Compound 18, 2-((3-Benzyl-5-(2-((2,4-dichlorophenyl)amino)-2-oxoethoxy)-1H-indol-1-yl)methyl)benzoic acid]

Reference: PMC6213020, “Identification of a Novel PPAR-γ Agonist through a Scaffold Tuning Approach” (International Journal of Molecular Sciences, 2018)
